The source of these data is US8536165B2, “Azabiphenylaminobenzoic acid derivatives as DHODH inhibitors” (Almirall, S.A., priority 2007, dated 2013).

Molecules are shown by their SMILES.

The target of one test is human DHODH (Homo sapiens (Human), UniProt Q02127). The test can be described thus: Inhibition of Human DHODH Activity Assay. It is filed as biochemical. To be noted: chromogen reduction assay with DCIP, human enzyme extract, 10 min at room temperature; read-out: hDHODH IC50. How it is done: DHODH activity and its inhibition were studied using a chromogen reduction assay with DCIP (2,6-dichlorophenol-indophenol). […] Enzyme extracts (8 μl, ˜1.5 μg of human protein) were incubated in 96-well plates. The assay mixture (200 μl) contained 200 μM CoQD, 100 μM L-DHO, 120 μM DCIP in the assay buffer (100 mM HEPES pH 8.0, 150 mM NaCl, 10% Glicerol, 0.05% Triton X-100) and 2 μl of test compound. The compounds were dissolved in DMSO at a stock concentration of 1 mM, and tested at different concentrations […] to calculate an IC50 (concentration of inhibitor required for 50% of inhibition).
human DHODH, sequence (Q02127 whole entry): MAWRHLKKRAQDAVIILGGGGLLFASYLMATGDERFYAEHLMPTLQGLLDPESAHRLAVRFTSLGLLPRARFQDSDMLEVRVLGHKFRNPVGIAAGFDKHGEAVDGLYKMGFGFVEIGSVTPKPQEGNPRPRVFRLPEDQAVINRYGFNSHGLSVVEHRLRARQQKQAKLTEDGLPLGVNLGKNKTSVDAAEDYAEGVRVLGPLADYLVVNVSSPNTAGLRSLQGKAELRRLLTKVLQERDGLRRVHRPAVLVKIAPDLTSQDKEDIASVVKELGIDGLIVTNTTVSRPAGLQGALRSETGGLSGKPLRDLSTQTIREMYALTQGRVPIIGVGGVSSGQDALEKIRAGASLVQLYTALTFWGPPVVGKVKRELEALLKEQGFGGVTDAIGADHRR
The reaction was initiated by adding the enzyme and then incubated for 10 min at room temperature before measuring DCIP reduction by counting a decrease in absorbance at 600 nm using standard instrumentation (Spectramax).
All reactions were carried out in duplicate and graphs, determining IC50 values for each compound, were plotted using the ABase software.

For a further test, the system named is HIV. To be noted: at concentration that can be obtained with conventional dosing; cited from earlier work.

Consider `O=C(O)c1cc(C2CC2)ccc1Nc1cnc(-c2cc(C(F)(F)F)ccc2F)nc1` [Example 104, 5-Cyclopropyl-2-(2-(2-fluoro-5-(trifluoromethyl)phenyl)pyrimidin-5-ylamino)benzoic acid], for which the 50% inhibitory concentration (IC50) at human DHODH worked out at 21 nM. With `Cc1oncc1C(=O)Nc1ccc(C(F)(F)F)cc1` [Leflunomide], the “reduction of HIV replication” value in the test on HIV is listed as “about 75%”.
